Assay results published in patent US20080118591A1, “Bactericidal Formulations” (priority 2004, published 2008).
Read-outs that look alike come from different tables or passages of the source.

Tests used:
Assay in all cases: Rapid bactericidal activity of liquid wash formulations
Assay type in all cases: cell-based
Pseudomonas aeruginosa = tested on: Pseudomonas aeruginosa
Protocol: (§1) The above formulations are supplemented with 0.9% (w/v) of the perfume composition A of example 2. A control of each formulation is left un-perfumed. The rapid bactericidal activity of these formulations is then tested as follows: • The products are diluted 1:1 in hard water as defined in the European standard EN 1276. This mimics conditions of use on wet hands or wet surfaces in commonly used water. • 500 μl of the product is mixed with 25 μl of a bacterial inoculum containing 2×10^8 cfu/ml (colony forming units). • The mixture is incubated for 30 seconds at 37° C. • 20 μl of the mixture is removed and added to 180 μl neutralising solution (containing 3 g lecithin, 30 g Tween® 80, 5 g sodium thiosulfate, 1 g histidine, 30 g saponin, 8.5 g sodium chloride, 1 g tryptone and 1000 ml water). • The mixture with neutraliser is incubated for 1 min • Serial dilutions of the mixture with neutralising solution are made, and aliquots of these are added to Petri-dishes and embedded in tryptic soy agar containing 0.5% Tween® 80 to inactivate any residual antibacterial compounds. • Bacterial numbers are counted after 24 h incubation at 37° C. and compared to control samples. • Reduction in bacterial viability is determined as described in example 1
The resulting formulations are tested in a 1:1 dilution for their rapid bactericidal effects after 30 seconds for Pseudomonas aeruginosa.
Formulation IVg is supplemented as indicated in the table below with various different chelating agents instead of EDTA and is tested as described in example 5a. The resulting products are tested with 30 s contact time at a 1:1 dilution for bactericidal effects on P. aeruginosa.

E. coli = conditions: in formulation IV, 30 s
Protocol: as §1, with “A” for “The above formulations are supplemented with 0.9% (w/v) of the perfume composition A of example 2. A”
Formulations are tested in a dilution of 1:1 and with 30 seconds contact time to bacteria (E. coli). […]

S. aureus = conditions: in formulation IV, 30 s
Protocol: as §1
Formulation IV of example 3 is supplemented with different concentrations of phenolic biocides and different concentrations of the perfume composition A of example 2. The reduction in viability of various test organisms is determined at different dilutions of the formulation (1:1 or 1:3 to simulate conditions of use) after 30 seconds contact time.

[1] = chelating agent added to formulation instead of EDTA, 1:1, 30 s

O=C(O)CN(CC(=O)O)[C@@H]1CCCC[C@H]1N(CC(=O)O)CC(=O)O (relative stereo) [CDTA, trans 1,2-diaminocyclohexane-N,N,N′N′-tetraacetic acid]
effect of the chelating agent on rapid activity of the formulation against Pseudomonas aeruginosa (in words) (Pseudomonas aeruginosa): further improves the effectiveness

CC(O)(P(=O)(O)O)P(=O)(O)O [1-hydroxyethylidene-1,1-phosphonic acid]
effect of the chelating agent on rapid activity of the formulation against Pseudomonas aeruginosa (in words) (Pseudomonas aeruginosa): not able to provide this improved activity

Oc1ccc(Cl)cc1Cc1ccccc1 [2-benzyl-4-chlorphenol]
rapid bactericidal effect, E. coli 1:1 (E. coli; Biocide 0.2%, Perfume 0%): 1
rapid bactericidal effect, E. coli 1:3 (E. coli; Biocide 0.2%, Perfume 0%): 1
rapid bactericidal effect, E. coli 1:1 (E. coli; Biocide 0.2%, Perfume 0.45%): >250
rapid bactericidal effect, E. coli 1:3 (E. coli; Biocide 0.2%, Perfume 0.45%): 2
rapid bactericidal effect, E. coli 1:1 (E. coli; Biocide 0.4%, Perfume 0%): 18
rapid bactericidal effect, E. coli 1:3 (E. coli; Biocide 0.4%, Perfume 0%): 1
rapid bactericidal effect, E. coli 1:1 (E. coli; Biocide 0.4%, Perfume 0.45%): >250
rapid bactericidal effect, E. coli 1:3 (E. coli; Biocide 0.4%, Perfume 0.45%): 4
rapid bactericidal effect, S. aureus conc. (S. aureus; Biocide 0.2%, Perfume 0%): 1
rapid bactericidal effect, S. aureus conc. (S. aureus; Biocide 0.2%, Perfume 0.45%): 1
rapid bactericidal effect, S. aureus conc. (S. aureus; Biocide 0.4%, Perfume 0%): 3
rapid bactericidal effect, S. aureus conc. (S. aureus; Biocide 0.4%, Perfume 0.45%): 21

O=P(O)(O)CN(CP(=O)(O)O)CP(=O)(O)O [Aminotri (methylene-phosponic acid)]
effect of the chelating agent on rapid activity of the formulation against Pseudomonas aeruginosa (in words) (Pseudomonas aeruginosa; [1]): not able to provide this improved activity

O=C(O)CN(CCN(CC(=O)O)CC(=O)O)CCN(CC(=O)O)CC(=O)O [DTPA, di-ethylen-triamine-penta-acetate]
effect of the chelating agent on rapid activity of the formulation against Pseudomonas aeruginosa (in words) (Pseudomonas aeruginosa; [1]): not able to provide this improved activity

O=C(O)C[C@H](NCCN[C@@H](CC(=O)O)C(=O)O)C(=O)O [EDDS, ethylendiaminedisuccinic acid]
effect of the chelating agent on rapid activity of the formulation against Pseudomonas aeruginosa (in words) (Pseudomonas aeruginosa; [1]): not able to provide this improved activity

O=C(O)CC(NC(CC(=O)O)C(=O)O)C(=O)O (stereo not shown) [IDS, iminodisuccinic acid]
effect of the chelating agent on rapid activity of the formulation against Pseudomonas aeruginosa (in words) (Pseudomonas aeruginosa; [1]): not able to provide this improved activity

O=C(O)CN(CC(=O)O)CC(=O)O [NTA, nitrilotriacetic acid]
effect of the chelating agent on rapid activity of the formulation against Pseudomonas aeruginosa (in words) (Pseudomonas aeruginosa; [1]): not able to provide this improved activity

Oc1cc(Cl)ccc1Oc1ccc(Cl)cc1Cl [Triclosan, 2,4,4′-trichloro-2′-hydroxy-diphenylether]
rapid bactericidal effect, E. coli 1:1 (E. coli; Biocide 0.2%, Perfume 0%): 1
rapid bactericidal effect, E. coli 1:3 (E. coli; Biocide 0.2%, Perfume 0%): 1
rapid bactericidal effect, E. coli 1:1 (E. coli; Biocide 0.2%, Perfume 0.45%): >250
rapid bactericidal effect, E. coli 1:3 (E. coli; Biocide 0.2%, Perfume 0.45%): 2
rapid bactericidal effect, S. aureus conc. (S. aureus; Biocide 0.2%, Perfume 0%): 12
rapid bactericidal effect, S. aureus conc. (S. aureus; Biocide 0.2%, Perfume 0.45%): 31
